The values below are quoted from earlier work in US10993934B2, “Topical compositions of dutasteride” (SHILPA MEDICARE LIMITED, priority 2017, dated 2021).

For data set [1] the following is noted: orally administered.

On to `C[C@]12C=CC(=O)N[C@@H]1CC[C@@H]1[C@@H]2CC[C@]2(C)[C@@H](C(=O)Nc3cc(C(F)(F)F)ccc3C(F)(F)F)CC[C@@H]12` [Dutasteride, (5α,17β)-N-{2,5-bis(trifluoromethyl)phenyl}-3-oxo-4-azaandrost-1-ene-17-carboxamide], for which, in data set [1], the Absolute bioavailability result is on record as “about 60%”. For the same molecule, in data set [1] (range in brackets), the “Absolute bioavailability (range)” value is reported as 40%-94%. Also, the Solubility in ethanol entry (ethanol) is “soluble”. For the same molecule, for the setting “methanol”, the Solubility in methanol entry is “soluble”. Where the note is “polyethylene glycol 400”, the “Solubility in polyethylene glycol 400” value is reported as “soluble”. Also, the Solubility in water result (water) is listed as “insoluble”.
